Data: paper PMC7553701 (Toxicological Sciences, 2020)
≈ marks a conversion by molar mass, not a printed value. Entries after “also recorded” stand apart in the source; their conditions may differ. Read-outs that look alike come from different tables or passages of the source.

How the values were obtained:
NRF2 = experiment: HEK cell CYP450-dependent versus -independent NRF2 stabilization assay; type: cell-based, human; conditions: for NRF2 activation with and without CYP450 expression: HEK-CYP cell lines, [− Dox] and [+ Dox]; for NRF2 protein level in noninduced cells: HEK293/CYP cells without Dox; for NRF2 protein level in cells expressing other CYP isoforms: HEK293 cells expressing the other 7 CYP isoforms; for NRF2 activation: HEK Cyp3A4 and parental cell lines, up to 90 µM
patients = conditions: ref Hargreaves and Olesen, 2019, cited from earlier work
human hepatocytes = experiment: Covalent protein binding; type: in vitro ADME; conditions: radiolabeled drug
[1] = system: NRF2/Keap1 and NRF1 coregulated gene network in rat liver; conditions: for rat BA-LRA result: in vivo rat liver, threshold 0.22; for BA-LRA score / BA-LRA outcome, day 1 single dose study: rat; for maximum daily dose (boundary) predicted from BA-LRA score: clinical daily dose; for BA-LRA outcome, day 1 single dose study: day 1 single dose sample collection
rat liver = experiment: BA-LRA score calculated from Open TG-GATEs Affymetrix GeneChip data; type: in vivo; conditions: 600 mkd, 24 h, Affymetrix platform; ref Igarashi et al., 2015
rat [2] = experiment: Histopathology, clinical chemistry and tolerability in short-term rat studies; type: in vivo; conditions: oral gavage, high dose 500–750 mkd
Cyp3A4 = Cyp3A4 (Homo sapiens, UniProt P08684, DEL224-224/T224I/V225I); experiment: Cyp3A4 degradation in HEK Cyp3A4 cell line; type: cell-based; conditions: up to 90 µM
[3] = system: rat hepatocyte micropatterned coculture model (HepatoPac); experiment: In vitro BA-LRA in rat HepatoPac; type: cell-based; conditions: 9 days, at 50 µM
human HepatoPac [4] = experiment: In vitro BA-LRA in human HepatoPac; type: cell-based; conditions: at 50 µM
rat HepatoPac = experiment: Urea synthesis in rat HepatoPac cultures; type: cell-based; conditions: 9 days
human HepatoPac [5] = experiment: Urea synthesis in human HepatoPac cultures; type: cell-based; conditions: 9 days of exposure
[6] = system: bile salt export pump (BSEP); experiment: Bile salt export pump; type: biochemical; conditions: modeling a dose of 280 mg; ref Hafey et al., unpublished data
rat [7] = experiment: 6-month rat toxicology study; type: in vivo; conditions: 6 months, highest dose tested
NHP = experiment: 9-month NHP toxicology study; type: in vivo; conditions: 9 months, highest dose tested
Mouse = experiment: 6-month mouse toxicology study; type: in vivo; conditions: 6 months, highest dose tested
human HepatoPac [8] = conditions: ref Hafey et al., unpublished data, cited from earlier work
BSEP = conditions: siRNA BSEP KD rat; ref Li et al., 2019; cited from earlier work
HepG2 = conditions: 24 h, HepG2 glucose-galactose shift; ref Xu et al., 2019; cited from earlier work
Biliary excretion = type: cell-based; conditions: human HepatoPac cultures, plasma or biological fluid
Dog = experiment: 1-month dog toxicology study; type: in vivo; conditions: high dose with excessive body weight loss
[9] = Clinical studies: liver safety and exposure; conditions: human, in vivo, 900 mg

Question: For `CC1(C)CC[C@]2(C(=O)O)CC[C@]3(C)[C@H](C(=O)C=C4[C@@]5(C)C=C(C#N)C(=O)C(C)(C)[C@@H]5CC[C@]43C)[C@@H]2C1` [Bardoxolone], which “NRF2 activation with and without CYP450 expression” value (NRF2) is on record?
Answer: Its value is “induced NRF2 activation in a similar fashion under both [− Dox] and [+ Dox] conditions”.

Question: For `C[C@@H]1[C@H](c2ccccc2)C[C@H](NC(=O)c2cnc3c(c2)C[C@@]2(C3)C(=O)Nc3ncccc32)C(=O)N1CC(F)(F)F` [Ubrogepant], which “clinical liver safety profile” value (patients; clinical trials) is on record?
Answer: Its value is “superior clinical liver safety profile”.

Question: Which “NRF2 protein level in noninduced cells” value (NRF2; 6 h) does the source give for `Clc1ccccc1CN1CCc2sccc2C1` [Ticlopidine] here?
Answer: Its value is “not in noninduced cells”.

Question: And the “NRF2 protein level in cells expressing other CYP isoforms” value (NRF2)?
Answer: The value was “no effects on the NRF2 protein level”.

Question: What about the “concentration at which NRF2 activation begins” value (NRF2; induced [+Dox] CYP2C9 expressing HEK293 cells, 6 h) of the same molecule?
Answer: The value was “approximately 25 µM”.

Question: With `CN/C(=N/CCSCc1nc[nH]c1C)NC#N` [Cimetidine] as the molecule, how does the “covalent protein binding in human hepatocytes” value (from here on “covalent protein binding”) (human hepatocytes) read?
Answer: The value was “high CPB”.

Question: For `C/N=C(\S)NCCSCc1[nH]cnc1C` [Metiamide], which “rat BA-LRA result” value [1] is on record?
Answer: Its value is “did not show a significant rat liver BA-LRA signal”.

Question: With `CC(=O)Nc1ccc(O)cc1` [Acetaminophen] as the molecule, how does the “NRF2 protein level in noninduced cells” value (NRF2; 6 h) read?
Answer: The value was “not apparent”.

Question: And the “NRF2 protein level in cells expressing other CYP isoforms” value (NRF2)?
Answer: The value was “not apparent”.

Question: And the “BA-LRA score calculated from TG-GATEs data” value (rat liver)?
Answer: Its value is 0.32.

Question: What about the BA-LRA score ([1]; at 24 h (Figs. 2 and 3)) of the same molecule?
Answer: Its BA-LRA score is 0.54.

Question: With `O=C(N[C@@H]1CC[C@@H](c2cccc(F)c2F)CN(CC(F)(F)F)C1=O)N1CCC(n2c(=O)[nH]c3ncccc32)CC1` [Telcagepant] as the molecule, how does the “tolerability of high repeat daily doses” value (rat [2]) read?
Answer: Its value is “poorly tolerated”.

Question: And the “covalent protein binding” value (human hepatocytes)?
Answer: Its value is “high covalent binding”.

Question: And the NRF2 activation (NRF2)?
Answer: The NRF2 activation was “no effect was seen”.

Question: And the Cyp3A4 degradation (Cyp3A4)?
Answer: The Cyp3A4 degradation was “no effect was seen”.

Question: And the “BA-LRA (in vitro)” value [3]?
Answer: Its value is “well exceeding the threshold of the assay”.

Question: What about the “BA-LRA (in vitro)” value ([3]; listed as MK-0974/Telcagepant) of the same molecule?
Answer: The value was greater than 0.2.

Question: What about the “in vitro BA-LRA transcriptional response to CRM responsive genes” value (human HepatoPac [4]) of the same molecule?
Answer: Its value is “well exceeding the threshold of the assay”.

Question: What about the “urea (mito fx) / urea synthesis” value (rat HepatoPac) of the same molecule?
Answer: Its value is “no inhibition of urea synthesis”.

Question: And the “urea (mito fx) / urea synthesis” value (rat HepatoPac; listed as MK-0974/Telcagepant)?
Answer: The value was “no effect on urea to 100 µM”.

Question: And the urea synthesis (human HepatoPac [5])?
Answer: The urea synthesis was “no inhibition of urea synthesis”.

Question: What about the “exposure multiple of BSEP IC50 above calculated free unbound liver inlet Cmax” value [6] of the same molecule?
Answer: Its value is 17.5 fold.

Question: And the “Liver Findings” value (rat [7])?
Answer: Its value is “No liver safety signal at Highest Dose tested”.

Question: What about the “Liver Findings” value (NHP) of the same molecule?
Answer: The value was “No liver safety signal at Highest Dose tested”.

Question: What about the “Liver Findings” value (Mouse) of the same molecule?
Answer: Its value is “No liver safety signal at Highest Dose tested”.

Question: What about the “maximum daily dose (boundary) predicted from BA-LRA score” value [1] of the same molecule?
Answer: The value was less than 600 mg.

Question: What about the BA-LRA score ([1]; 400 mkd × 4 days, peak score) of the same molecule?
Answer: The BA-LRA score was 0.30.

Question: And the “Biliary Excretion Index IC50” value (human HepatoPac [8])?
Answer: Its value is 16 µM.

Question: And the “synergy expected for a BSEP inhibitor” value (BSEP)?
Answer: The value was “no evidence for synergy”.

Question: What about the mitochondrial toxicity (HepG2) of the same molecule?
Answer: The mitochondrial toxicity was “unlikely mechanism of concern”.

Question: For `CN1CCN(C2=Nc3cc(Cl)ccc3Nc3ccccc32)CC1` [Clozapine], which “rat BA-LRA result” value [1] is on record?
Answer: Its value is “significant BA-LRA signal”.

Question: What about the “BA-LRA outcome, day 1 single dose study” value [1] of the same molecule?
Answer: Its value is “BA-LRA positive”.

Question: Which “tolerability of high repeat daily doses” value (rat [2]) does the source give for `Cc1cnc(NC(=O)C2=C(O)c3ccccc3S(=O)(=O)N2C)s1` [Meloxicam] here?
Answer: Its value is “not tolerated”.

Question: For `Clc1ccccc1C(c1ccccc1)(c1ccccc1)n1ccnc1` [Clotrimazole], which “tolerability of high repeat daily doses” value (rat [2]) is on record?
Answer: Its value is “not tolerated”.

Question: Which results are given for `Cc1cc2c(s1)Nc1ccccc1N=C2N1CCN(C)CC1` [Olanzapine]?
Answer: tolerability of high repeat daily doses (rat [2]): not tolerated; BA-LRA outcome, day 1 single dose study [1]: InsfT

Question: Which “covalent protein binding” value (human hepatocytes) does the source give for `CNS(=O)(=O)Cc1ccc2[nH]cc(CCN(C)C)c2c1` [Sumatriptan] here?
Answer: The value was “high CPB”.

Question: Which “tolerability of high repeat daily doses” value (rat [2]) does the source give for `Nc1c2c(nc3ccccc13)CCCC2` [Tacrine] here?
Answer: The value was “not tolerated”.

Question: Which NRF2 activation (NRF2) does the source give for `O=C(CN1C(=O)C2(CCCC2)NC[C@H]1c1cc(F)cc(F)c1)Nc1ccc2c(c1)C[C@@]1(C2)C(=O)Nc2ncccc21` [MK-3207] here?
Answer: Its NRF2 activation is “no CYP-dependent effect on NRF2 activation”.

Question: And the Cyp3A4 degradation (Cyp3A4)?
Answer: The Cyp3A4 degradation was “clear dose-dependent effect on Cyp3A4 degradation”.

Question: And the “urea (mito fx) / urea synthesis” value (rat HepatoPac)?
Answer: Its value is “lack of urea synthesis inhibition; also recorded: no effect on urea to 80 µM”.

Question: And the urea synthesis (human HepatoPac [5])?
Answer: Its urea synthesis is “lack of urea synthesis inhibition”.

Question: What about the solubility (Biliary excretion) of the same molecule?
Answer: The solubility was 50 µM (≈ 27.9 µg/mL).

Question: And the “Liver Findings” value (rat [7])?
Answer: Its value is “No liver safety signal at Highest Dose tested”.

Question: And the “Liver Findings” value (NHP)?
Answer: Its value is “No liver safety signal at Highest Dose tested”.

Question: And the “Liver Findings” value (Mouse)?
Answer: Its value is “No liver safety signal at Highest Dose tested”.

Question: And the “Liver Findings” value (Dog)?
Answer: Its value is “Slight periportal vacuolation”.

Question: And the AUC [9]?
Answer: Its AUC is 60 µM·h.

Question: What about the “maximum daily dose (boundary) predicted from BA-LRA score” value [1] of the same molecule?
Answer: The value was 300 mg.

Question: What about the BA-LRA score ([1]; 600 mkd × 4-day, median signature score) of the same molecule?
Answer: Its BA-LRA score is 0.34.

Question: What about the “biliary excretion of taurocholic acid” value (human HepatoPac [8]; 50 µM) of the same molecule?
Answer: Its value is “no significant impact”.

Question: And the mitochondrial toxicity (HepG2)?
Answer: Its mitochondrial toxicity is “No evidence for mitochondrial toxicity”.

Question: And the “incidence of subjects with ALT rises > 3-fold ULN” value (patients; Phase 2, 2 weeks, daily doses ≤ 100 mg (2/197))?
Answer: The value was 1%.

Question: What about the “patients with > 20-fold ALT rises” value (patients; among the 5 patients dosed above 500 mg daily) of the same molecule?
Answer: The value was 3.

Question: With `COc1ccc2[nH]c([S+]([O-])Cc3ncc(C)c(OC)c3C)nc2c1` (stereo not drawn) [Omeprazole] as the molecule, how does the “NRF2 activation with and without CYP450 expression” value (NRF2) read?
Answer: Its value is “gave similar results”.

Question: For `C[S+]([O-])CCCCN=C=S` (stereo not drawn) [Sulforaphane, sulforaphane], which “NRF2 activation with and without CYP450 expression” value (NRF2) is on record?
Answer: The value was “gave similar results”.

Question: Which “NRF2 activation with and without CYP450 expression” value (NRF2) does the source give for `Cc1c(-c2cnccn2)ssc1=S` [Oltipraz, oltipraz] here?
Answer: Its value is “gave similar results”.
